# Experiments:
# [1] = system: human breast cancer cell line (MCF-7); conditions: MCF-7, Non-patent literature 1; cited from earlier work
# [2] = system: mouse model of memory impairment; assay: Y-shaped maze test in scopolamine mouse model of memory impairment; format: in vivo; conditions: ICR mice, scopolamine 3 mg/kg i.p., Y-shaped maze on day 7
# Method: The memory-improving effect of araliadiol was confirmed by administering (orally by sonde) a composition containing arariadiol (a compound shown in Formula I) to a mouse model of memory impairment.
# Experimental methods are described below. The following groups of ICR mice (male, 7 weeks old/purchased from SLC Japan) were established. The mice in each group, except for the untreated group, were treated with the composition orally administered by sonde and scopolamine administered intraperitoneally (i.p.). The composition contains a predetermined amount of araliadiol in distilled water. Scopolamine was administered at a dose of 3 mg per kg of mice to cause memory impairment in mice. […] For groups other than the untreated group, distilled water or the composition was administered daily from day 0 to day 6 (seven doses of the composition), with day 0 being the first day of administration of distilled water or the composition. On the 7th day, all groups of mice were tested in a Y-shaped maze test. Scopolamine was administered to all groups of mice except the untreated group 30 minutes before the start of the Y-shaped maze test. • Untreated group: 15 ICR mice that were treated with distilled water containing no araliadiol, but not with scopolamine. • Control group: 16 ICR mice were treated with distilled water containing no araliadiol and scopolamine. • Araliadiol 1 mg/kg group: 16 ICR mice were treated with a composition containing araliadiol (1 mg of araliadiol per 1 kg of mouse body weight per day: 1 mg/kg/day) and scopolamine. • Araliadiol […]: A group of 16 ICR mice that received a composition containing araliadiol (10 mg of araliadiol per kg of mouse body weight per day: 10 mg/kg/day) and a dose of SCOPE.
# The Y-shaped maze device shown in FIG. 11 (made of gray acrylic: 40 cm long×10 cm wide×12 cm high) was used to conduct the Y-shaped maze test. In the Y-shaped maze test, mice were allowed to explore in the device, and the spontaneous alternations observed during the exploratory behavior were evaluated as short-term memory. The mice were placed at the tip of one of the three arms of the Y-shaped maze, allowed to explore freely in the maze for 8 minutes, and the arms they entered were recorded in order. The number of times for the mouse to enter each arm (total number of arm entries) and the number of combinations of consecutive entries into three different arms (number of alternation behaviors) were examined during the measurement period (8 minutes). The alternation behavior (%) was calculated from the following formula and used as an index of short-term memory.
# Alternating behavior (%)=number of alternating actions/(total number of arm entries−2)×100
compound,measurement,setting,value
"C=C[C@H](O)C#CC#C[C@H](O)/C=C\CCCCC [Araliadiol, 3(S),8(R)-pentadeca-1,9(Z)-diene-4,6-diyne-3,8-diol]",cell cycle,[1],arrest the cell cycle
same,proliferation,[1],inhibit the proliferation
same,Alternating behavior (%),[2]; 1 mg/kg/day oral for 7 days,50.87%
same,Alternating behavior (%),"[2]; 1 mg/kg/day oral for 7 days, listed as araliadiol",increase in the rate of alternation behavior
same,Alternating behavior (%),[2]; 10 mg/kg/day oral for 7 days,53.18(*) %
same,Alternating behavior (%),"[2]; 10 mg/kg/day oral for 7 days, listed as araliadiol",improvement in the rate of alternating behavior

# — patent US20220401377A1, “COMPOSITION FOR PREVENTING AND/OR TREATING NEURODEGENERATIVE DISORDERS” (ICHIMARU PHARCOS CO., LTD., priority 2019, published 2022)
